1 molecule from patent US20230286973A1, “PROTEIN SECRETION INHIBITORS” (KEZAR LIFE SCIENCES, priority 2020, published 2023) can be followed below.

Data set [1] has as its system PD1-ss+10aa/Gaussia Luciferase. Description: Dox-Induced PD1-ss-Gluc Assay. In kind it is cell-based. The settings on record: 24 hr Dox induction; 293FRT/TO cells; mean; read-out: 24 hr Dox Inducible PD1ssGluc 293FRT/TO: Mean IC50. In outline: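 Flp-In 293 T-REx cells stably carrying a doxycycline-inducible Gaussia luciferase fused to the PD1 signal sequence plus 10 aa were plated the day before. Compound dilutions in DMSO/media containing doxycycline were then added and incubated at 37 °C, 5% CO2. Data for undefined stereochemistry refer to stereoisomer mixtures.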

Data set [2] relates to TNFα-FL/Gaussia Luciferase. Description: Dox Induced TNFα-FL-Gluc Assay. It counts as cell-based. Put shortly:
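Flp-In 293 T-REx cells stably expressing full-length TNFα (aa 1-233) fused at its C-terminus to Gaussia luciferase under tetracycline-regulated control were plated the day before assay. Compound dilutions in DMSO/media containing doxycycline were added and incubated at 37 °C, 5% CO2. Unspecified stereochemistry denotes stereoisomer mixtures.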

The subject of data set [3] is HER3-ss+4aa/Gaussia Luciferase. Description: Dox-Induced Her3-ss-Gluc Assay. It counts as cell-based. The settings on record: 24 hr Dox induction; 293FRT/TO cells; mean; read-out: 24 hr Dox Inducible Her3(ss + 4)Gluc 293FRT/TO: Mean IC50. Put shortly:
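Stable Flp-In 293 T-REx line expressing Gaussia luciferase fused to the HER3 signal sequence plus 4 amino acids under tetracycline-regulated (T-REx) control. Cells plated the day before, then treated with compound dilutions in DMSO/media containing doxycycline and incubated at 37° C., 5% CO2.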

In data set [4] the test system is IL-2-FL/Gaussia Luciferase. Nature of the data set: Dox Induced IL2-FL-Gluc Assay. It counts as cell-based. In outline:
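Flp-In 293 T-REx cells stably carrying doxycycline-inducible full-length IL-2 (aa 1-153) fused at its C-terminus to Gaussia luciferase, selected with hygromycin and blasticidin. Cells were plated the day before, then treated with compounds in DMSO/media containing doxycycline at 37° C, 5% CO2.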

Data set [5] concerns multiple myeloma cell line NCI-H929. Description: H929 Cell Viability Assay. The settings on record: Homo sapiens, NCI-H929, 48 h, NCI-H929 cells, Celltiter-Glo. In kind it is cell-based, human. Put shortly: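 NCI-H929 cells, resuspended in RPMI 1640 with 10% FBS and 2 mM glutamine, were treated with compound dilutions in DMSO/media and incubated 48 hours at 37° C, 5% CO2. Viability was read by CellTiter-Glo luminescence. Compounds drawn without stereochemistry were tested as stereoisomer mixtures.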
A general note: ATP-based viability assays read luminescence as a measure of living cells.

Data set [6] relates to multiple myeloma cell line U266B1. Nature of the data set: U266 Cell Viability Assay. It counts as cell-based, human. The settings on record: Homo sapiens, U-266, 48 h, U266B1 cells, Celltiter-Glo. Put shortly: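 Cells grown in RPMI 1640 with 10% FBS, 2 mM glutamine and penicillin/streptomycin were exposed to compound dilutions in DMSO/media for 48 hours at 37° C., 5% CO2. Viability was read by CellTiter-Glo luminescence. Undefined stereocentres mean data for stereoisomer mixtures.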

Data set [7] can be described thus: Liver Microsome Stability Assay (rat). The settings on record: rat liver microsomes, with NADPH, 1.0 uM compound. In general terms: Liver microsomes are a subcellular fraction often used to study metabolism.
Experimental: (§1) Stability of a compound was assessed in the presence of liver microsomes from various sources—mouse, rat, monkey and human liver microsomes. 1.0 uM compound, 0.4% DMSO in 0.1 M Potassium Phosphate with 1.0 mg/mL liver microsomes, were incubated at 37° C. with or without 1 mM NADPH. The samples were quenched at 0, and 30 minutes.
The nature of data set [8]: Liver Microsome Stability Assay (mouse). The settings on record: mouse liver microsomes, with NADPH, 1.0 uM compound.
Experimental: as §1
A short description of data set [9]: Liver Microsome Stability Assay (human). The settings on record: human liver microsomes, with NADPH, 1.0 uM compound.
Experimental: as §1
The nature of data set [10]: Liver Microsome Stability Assay (monkey). The settings on record: monkey liver microsomes, with NADPH, 1.0 uM compound.
Experimental: as §1

For the molecule `CCc1ccc(N2CCC[C@@H]2c2csc(NC(=O)c3cccn3Cc3ccncc3)n2)nc1` [Compound E65, (R)-N-(4-(1-(5-ethylpyridin-2-yl)pyrrolidin-2-yl)thiazol-2-yl)-1-(pyridin-4-ylmethyl)-1H-pyrrole-2-carboxamide], the IC50 was 5.5 nM in data set [1]; 71 nM in [2] (24 hr Dox induction, 293FRT/TO cells, mean, read-out: 24 hr Dox Inducible TNFaFLGluc 293FRT/TO: Mean IC50); 14.4 nM in data set [3]; 16.4 nM in data set [4] (24 hr Dox induction, 293FRT/TO cells, mean, read-out: 24 hr Dox Inducible IL2FLGluc 293FRT/TO: Mean IC50). Besides, the “24 hr Dox Inducible TNFaFLGluc 293FRT/TO: TNF/PD1” value in data set [2] (ratio of TNFaFLGluc IC50 to PD1ssGluc IC50, '<=>' given where both are I.A.) was 12.9. Besides, the “24 hr Dox Inducible IL2FLGluc 293FRT/TO: IL2/PD1” value in data set [4] (ratio of IL2FLGluc IC50 to PD1ssGluc IC50, '<=>' given where both are I.A.) is 3. In addition, the figures for the EC50 in data set [5] and in data set [6] were 142 nM and above 25000 nM, respectively. In addition, the “Liver Microsome Stability (Multiple Species): Rat - % Remaining after 30 min w/NADPH” value in data set [7] came out at 2.87%. Further, the “Liver Microsome Stability (Multiple Species): Mouse - % Remaining after 30 min w/NADPH” value in data set [8] is 0.33%. In addition, in data set [9], the “Liver Microsome Stability (Multiple Species): Human - % Remaining after 30 min w/NADPH” value is listed as 0.33%. The “Liver Microsome Stability (Multiple Species): Monkey - % Remaining after 30 min w/NADPH” value in [10] turned out to be 0.13%.
